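Each compound was tested at five concentrations against cells in 96-well plates for 48 hours. Here, GI50 denotes the concentration required for 50% inhibition of growth. The concentration for full growth arrest is given as TGI.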 *1 amine or outer side, *2 acyl side, *3 side chain or, on linkers, in order; H or OH if unused. Where a SMILES comes first, the peptide text is derived from it. Bridges are numbered along the chain shown (N, C = ends). [ ]: non-standard residue; d: D form. The star is where a group is joined. Phe(3,5-F2) = N[C@@H](Cc1cc(F)cc(F)c1)C(=O)O; Pro(4R-Me) = C[C@H]1CN[C@H](C(=O)O)C1; aThr = C[C@H](O)[C@H](N)C(=O)O; Pip = O=C(O)[C@@H]1CCCCN1; X10 = Fc1cc(C2CC2)ccc1N*; Abu = CC[C@H](N)C(=O)O; CO = O=C([*:1])[*:2]
Key:
Test in all cases: inhibition of tumour cell growth, NCI panel, 48 h
[1] = system: MCF7 breast
[2] = system: BT-549 breast
[3] = system: RPMI-8226 leukemia
[4] = system: UO-31 renal
[5] = system: A549 NSCLC
[6] = system: EKVX NSCLC
[7] = system: NCI-H522 lung
[8] = system: CCRF-CEM leukemia
[9] = system: SR leukemia
[10] = system: IGROV1 ovarian
[11] = system: OVCAR-8 ovarian
[12] = system: OVCAR-3 ovarian
[13] = system: SK-MEL-28 melanoma
[14] = system: HOP-62 NSCLC
[15] = system: MOLT-4 leukemia
[16] = system: HCC-2998 colon
[17] = system: NCI-H23 lung
[18] = system: MALME-3M melanoma
[19] = system: SK-OV-3 ovarian
[20] = system: LOX IMVI melanoma
[21] = system: MDA-MB-435
[22] = system: HT29 colon
[23] = system: T-47D breast
[24] = system: PC-3 prostate
[25] = system: OVCAR-5 ovarian
[26] = system: HL-60(TB) leukemia
[27] = system: SK-MEL-2 melanoma
[28] = system: HS 578T breast
[29] = system: NCI-H226 lung
[30] = system: SF-268 CNS
[31] = system: K-562 leukemia
[32] = system: M14 melanoma
[33] = system: SW-620 colon
[34] = system: SNB-75 CNS
[35] = system: SK-MEL-5 melanoma
[36] = system: UACC-257 melanoma
[37] = system: A498 renal
[38] = system: 786-0 renal
[39] = system: UACC-62 melanoma
[40] = system: SF-539 CNS
[41] = system: TK-10 renal
[42] = system: OVCAR-4 ovarian
[43] = system: NCI-H460 lung
[44] = system: HCT-15 colon
[45] = system: HOP-92 NSCLC
[46] = system: HCT-116 colon
[47] = system: DU-145 prostate
[48] = system: MDA-MB-231 breast
[49] = system: SN12C renal
[50] = system: CAKI-1 renal
[51] = system: ACHN renal
[52] = system: RXF 393 renal
[53] = system: KM12 colon
[54] = system: SF-295 CNS
[55] = system: NCI/ADR-RES ovarian
[56] = system: U251 CNS
[57] = system: SNB-19 CNS
[58] = system: COLO 205 colon

CC[C@@H]1NC(=O)[C@@H]2CCCCN2C(=O)[C@@H]2CCCN2C(=O)[C@@H](NC(=O)[C@H](Cc2cc(F)cc(F)c2)NC(=O)Nc2ccc(C3CC3)cc2F)[C@H](C)OC(=O)[C@@H]2C[C@@H](C)CN2C1=O ({X10-CO}-[Phe(3,5-F2)][aThr]P[Pip][Abu][Pro(4R-Me)]; ester 2-C)
GI50 [1]: 43.7 nM | TGI [1]: 14900 nM | GI50 [2]: 90.5 nM | GI50 [3]: 32.3 nM | TGI [3]: 1670 nM | GI50 [4]: 326 nM | TGI [4]: 9470 nM | GI50 [5]: 62.5 nM | TGI [5]: > 65000 nM | GI50 [6]: 76.7 nM | TGI [6]: > 100000 nM | GI50 [7]: 56 nM | TGI [7]: 8480 nM | GI50 [8]: 60.3 nM | TGI [8]: > 100000 nM | GI50 [9]: 115 nM | TGI [9]: 3380 nM | GI50 [10]: 223 nM | TGI [10]: > 36700 nM | GI50 [11]: 42.7 nM | TGI [11]: > 100000 nM | GI50 [12]: 46.3 nM | TGI [12]: 2030 nM | GI50 [13]: 178 nM | TGI [13]: 2420 nM | GI50 [14]: 65.8 nM | TGI [14]: > 86200 nM | GI50 [15]: 271 nM | TGI [15]: > 30000 nM | GI50 [16]: 61.9 nM | TGI [16]: 1620 nM | GI50 [17]: 65.9 nM | TGI [17]: > 28600 nM | GI50 [18]: 108 nM | TGI [18]: 2930 nM | GI50 [19]: 64.2 nM | TGI [19]: 9830 nM | GI50 [20]: 74.8 nM | TGI [20]: 4380 nM | GI50 [21]: 49 nM | TGI [21]: 1720 nM | GI50 [22]: 70.9 nM | TGI [22]: 5490 nM | GI50 [23]: 62.7 nM | TGI [23]: 8160 nM | GI50 [24]: 39.6 nM | TGI [24]: 13000 nM | GI50 [25]: 67.9 nM | TGI [25]: 2630 nM | GI50 [26]: 39.9 nM | TGI [26]: 1650 nM | GI50 [27]: 90.2 nM | TGI [27]: 2570 nM | GI50 [28]: 83 nM | TGI [28]: 4980 nM | GI50 [29]: 63.2 nM | TGI [29]: 2570 nM | GI50 [30]: 59.1 nM | TGI [30]: > 49600 nM | GI50 [31]: 39.1 nM | TGI [31]: > 100000 nM | GI50 [32]: 50.1 nM | TGI [32]: 1860 nM | GI50 [33]: 67.9 nM | TGI [33]: > 43200 nM | GI50 [34]: 66.7 nM | TGI [34]: 6190 nM | GI50 [35]: 59.2 nM | TGI [35]: 1210 nM | GI50 [36]: 48.3 nM | TGI [36]: 6260 nM | GI50 [37]: 32 nM | TGI [37]: 1060 nM | GI50 [38]: 205 nM | TGI [38]: 15800 nM | GI50 [39]: 81.3 nM | TGI [39]: 2700 nM | GI50 [40]: 137 nM | TGI [40]: 2460 nM | GI50 [41]: 954 nM | TGI [41]: > 39100 nM | GI50 [42]: 37.2 nM | TGI [42]: 3260 nM | GI50 [43]: 45.9 nM | TGI [43]: 2620 nM | GI50 [44]: 220 nM | TGI [44]: 2250 nM | GI50 [45]: 54.7 nM | TGI [45]: 4060 nM | GI50 [46]: 42.7 nM | TGI [46]: 1610 nM | GI50 [47]: 59.3 nM | TGI [47]: > 100000 nM | GI50 [48]: 44.7 nM | TGI [48]: 1500 nM | GI50 [49]: 42.9 nM | TGI [49]: > 33800 nM | GI50 [50]: 54.7 nM | TGI [50]: 7250 nM | GI50 [51]: 237 nM | TGI [51]: 6840 nM | GI50 [52]: 419 nM | TGI [52]: 2790 nM | GI50 [53]: 258 nM | TGI [53]: 3860 nM | GI50 [54]: 55.2 nM | TGI [54]: 1540 nM | GI50 [55]: 505 nM | TGI [55]: > 38100 nM | GI50 [56]: 52.4 nM | TGI [56]: > 56600 nM | GI50 [57]: 44.3 nM | TGI [57]: > 56500 nM | GI50 [58]: 39.7 nM | TGI [58]: 1290 nM

From PubChem BioAssay (NCI)
